Data: patent US20120167671A1, “METHOD AND APPARATUS FOR TESTING TRANSDERMAL MEDICAMENTS” (EGIS GYOGYSZERGYAR NYILVANOSAN MUKODO RESZVENYTARSASAG, priority 2009, published 2012)

Test: Membrane penetration testing of piroxicam-containing cream, human skin membrane, test series (II)
Type: in vitro ADME
Conditions: 1% piroxicam cream, 34° C., no air flow
Experimental: In the test, the acceptor phase comprises 0.9 weight % sodium chloride solution. The flow rate of the acceptor phase is 0.3 ml/min. During the first test series (I), a cellophane membrane, during the second test series (II), a human skin membrane was used. Temperature of the cell was kept at 34° C. During both test series, the cell was exposed to natural sunlight. No air flow was applied. The membrane was allowed to stabilize for 60 minutes. After the stabilization period, 300 to 400 mg of test preparation measured by analytical precision are applied to the membrane homogeneously in 2-3 seconds. The flow of the acceptor phase is resumed and effluent fractions for periods of 30 minute each are collected. […] The high-performance liquid chromatographic analysis is carried out using external standard method in a reversed phase system. The separation is carried out using a Nucleosil C18 (250 mm×4.6 mm i.d.) column and a buffer-acetonitrile-methanol (1000:660:340, v/v/v) mobile phase. The separation is performed at the temperature of 40° C. Flow rate of the mobile phase is 1.0 ml/min. Detection is carried out by ultraviolet photodiode array detector in the wavelength range of 250 to 450 nm.

SMILES: CN1C(C(=O)Nc2ccccn2)=C(O)c2ccccc2S1(=O)=O [piroxicam]
- Cumulative amount of dissolved piroxicam, % Series (II) (fraction 1, 0-30 min): 0.00%
- Cumulative amount of dissolved piroxicam, % Series (II) (fraction 2, 30-60 min): 0.00%
- Cumulative amount of dissolved piroxicam, % Series (II) (fraction 3, 60-90 min): 0.00%
- Cumulative amount of dissolved piroxicam, % Series (II) (fraction 4, 90-120 min): 0.00%
- Cumulative amount of dissolved piroxicam, % Series (II) (fraction 5, 120-150 min): 0.01%
- Cumulative amount of dissolved piroxicam, % Series (II) (fraction 6, 150-180 min): 0.02%
- Cumulative amount of dissolved piroxicam, % Series (II) (fraction 7, 180-210 min): 0.02%
- Cumulative amount of dissolved piroxicam, % Series (II) (fraction 8, 210-240 min): 0.03%
- Cumulative amount of dissolved piroxicam, % Series (II) (fraction 9, 240-270 min): 0.04%
- Cumulative amount of dissolved piroxicam, % Series (II) (fraction 10, 270-300 min): 0.05%
- Cumulative amount of dissolved piroxicam, % Series (II) (fraction 11, 300-330 min): 0.05%
- Cumulative amount of dissolved piroxicam, % Series (II) (fraction 12, 330-360 min): 0.06%
